Experimental data as given in patent publication US8906853B2, “[N-Me-4-hydroxyleucine]-9-cyclosporin analogues for treatment and prevention of hepatitis C infection” (Enanta Pharmaceuticals, Inc., priority 2012, dated 2014).

How the values were obtained:
[1] = tested on: HCV 1a genotype replicon (strain H77, Huh-1a7 cells); assay: HCV replicon assay, qRT-PCR, genotype 1a replicon cell line (Huh-1a7); type: cell-based; conditions: HCV genotype 1a replicon, HCV RNA by qRT-PCR normalized to GAPDH RNA
From the text: (§1) HCV replicon cell lines (kindly provided by R. Bartenschlager) isolated from colonies as described by Lohman et al. (Lohman et al. (1999) Science 285: 110-113, expressly incorporated by reference in its entirety) and used for all experiments. One of the HCV replicon cell lines (strain Con1, genotype 1b) has the nucleic acid sequence set forth in EMBL Accession No.: AJ242651, the coding sequence of which is from nucleotides 1801 to 8406. Another replicon cell line (strain H77, genotype 1a) was constructed as described by Yi et al. (Yi et al. (2004) Journal of Virology 78(15):7904-15). […]
(§2) EC50 values of single agent compounds were determined by HCV RNA detection using quantitative RT-PCR, according to the manufacturer's instructions, with a TAQMAN® One-Step RT-PCR Master Mix Reagents Kit (Cat# AB 4309169, Applied Biosystems) on an ABI Model 7500 thermocycler. EC50 values of combinations are similarly determined by HCV RNA detection using quantitative RT-PCR. The TAQMAN primers to use for detecting and quantifying HCV RNA obtained from Integrated DNA Technologies. HCV RNA is normalized to GAPDH RNA levels in drug-treated cells, which is detected and quantified using the Human GAPDH Endogenous Control Mix (Applied Biosystems, AB 4310884E). […] Chemical agent cytotoxicity is evaluated using an MTS assay according to the manufacturer's directions (Promega). […]

[2] = tested on: HCV 1b genotype replicon (strain Con1, SGR 11-7 cells); assay: HCV replicon assay, qRT-PCR, genotype 1b replicon cell line (SGR 11-7); type: cell-based; conditions: HCV genotype 1b replicon, HCV RNA by qRT-PCR normalized to GAPDH RNA
From the text: as §1, §2

CC(C)CCCCN1CCOCC1 [Example 1]
EC50 ([1]; Hepatitis C virus): < 0.2 µM | EC50 ([2]; Hepatitis C virus): < 0.2 µM

Allisporivir
EC50 [1]: < 0.2 µM | EC50 [2]: < 0.2 µM
